21 compounds from patent US8765946B2, “Methods of preparing and using quinazoline and quinoline derivatives” (priority 2006, dated 2014) can be followed below.

Usually inhibition stands for the share of the control response that was lost under treatment.

For experiment [1], the system named is A431 cells. As to the kind of experiment: A431 cell growth inhibition assay (MTT assay). In kind it is cell-based. The conditions noted are these: Homo sapiens, A-431, concentration of 3 μM, 72 hours, read-out: Inhibition Percent (%). As to the method:
A431 Cell Growth Inhibition Assay (MTT Assay)
A431, an epidermoid carcinoma cell line; The Cell Bank, Committee on Type Culture Collection Chinese Academy of Science, Shanghai.
Mix prepared medium DMEM and F12 in the proportion of 1:1, then add FBS to a final concentration of 10%.
Dissolved the dried compound sample with 100% DMSO to 2 mM. Then diluted the dissolved compound to 20 μM with cell complete growth medium.
Prior to the assay, cultured the A431 to logarithmic phase, and then removed medium from cell monolayers and wash the cells once with sterilized PBS. Aspriated the PBS and added 2 mL trypsin solution to cover the cell growth surface, removed 1 mL trypsin solution after soaking about 1 minute. Transferred the cell-culture plate to CO2 incubator; incubated at 37° C. for 8 minutes to allow cells to dissociate. After the cells detached, added 4 mL complete growth medium containing FBS with pipette to disperse them off and mixed gently to obtain a homogeneous cell suspension. Aspirated some of the cell suspension to a sterilized polypropylene tube, and determined the cell concentration by counting in a hematocytometer chamber under a microscope. Adjusted the cell concentration with growth medium to obtain 2.5×10^4 cells per milliliter.
Added 100 μL adjusted cell suspension to the 96-well cell-culture plate and occasionally mixed the cell suspension during the seeding process. After seeding cells, incubated the plate at 37° C. overnight with 5% CO2 in the CO2 incubator for cell attachment.
After the cell attachment, added 100 μL prepared compound solutions to the corresponding wells (add PBS to the ambient wells of the plate). The final compound concentrations ranged from 10 μM to 1.52 nM. Incubated the plate at 37° C. with 5% CO2 for 72 hours in the CO2 incubator.
After the exposure to the compound, removed the cell culture supernatant. Then added 100 μL 0.5 mg/mL MTT solution which dissolved in the growth medium without FBS. Incubated the plate at 37° C. with 5% CO2 for another 4 hours to allow the MTT reaction to proceed.
After the MTT reaction, discarded the MTT reaction solution. Added 100 μL DMSO to each well, and the plate was agitated on the plate shaker for several minutes to dissolve the formazan. Then, detected the absorbance at 490 nm using microplate reader.
In general terms: Formazan colour is commonly taken as a measure of viable cells.

The test system of experiment [2] is BT474 cells. Briefly: BT-474 cell growth inhibition assay (SRB assay). The format is cell-based. The note with it: Homo sapiens, concentration of 3 μM, 72 h, read-out: Inhibition Percent (%). How it is done: BT-474 Cell Growth Inhibition Assay (SRB Assay)
BT-474 human breast cancer cell lines were kindly provided by Dr. Changnian Liu, Pharmaron Beijing Co., Ltd.
BT-474 cells were cultured in 37° C., 5% CO2, saturated humidity until logarithmic phase. Discarded culture medium, washed cells once by PBS. Added 1 ml Trypsin/EDTA solution, stood at 37° C. for 5 min, allowed the cells to detach. Added culture medium, adjusted the cells density to 1×10^5 cells/ml.
Day 0, added 100 μl/well cells suspension to 96-well cell culture plates. Incubated overnight to let the cells attach completely.
Day 1, compounds (2 mM in DMSO as stock solution) was diluted to 20 μM in EMEM. Then a fourfold serial dilution was made. These diluted compounds were made as 10× reaction solutions, and the concentration of DMSO was kept at 1%.
Added 80 μl culture medium and 20 μl 10× compound reaction solution to the testing wells, or vehicle control to the control wells. Co-incubated cells with compounds for another 72 h.
Day 3, fixed cellular protein by the addition of 100 μl/well of 10% TCA (diluting from 50% TCA) at 4° C. for 1 h. Rinsed TCA using plate washer, and washed five times using distilled water. Removed the residual wash solution with a piece of absorbent paper. Added 100 μl/well 0.4% SRB solution, allowed a 15-30 min staining period. Removed the SRB, and washed the culture plates five times using 1% acetic acid. Removed the residual wash solution with a piece of absorbent paper. Air-dried the culture plates, dissolved the protein-bound dye with 100 μl/well of 10 mM Tris base solution. Shook the plates until the dye was dissolved completely.
(In general: Sulforhodamine B stains cellular protein and so reports cell mass.)

On to `CCOc1cc2ncc(C#N)c(Nc3ccc(F)c(Cl)c3)c2cc1NC(=O)C=C1CCN(CC)CC1` [Example 178, N-(4-(3-chloro-4-fluorophenylamino)-3-cyano-7-ethoxyquinolin-6-yl)-2-(1-ethylpiperidin-4-ylidene)acetamide], for which the inhibition at 3 µM in experiment [1] is 88%.

`CCCN1CCC(=CC(=O)Nc2cc3c(Nc4ccc(F)c(Cl)c4)c(C#N)cnc3cc2OCC)CC1` [Example 179, N-(4-(3-chloro-4-fluorophenylamino)-3-cyano-7-ethoxyquinolin-6-yl)-2-(1-proplpiperidin-4-ylidene)acetamide]: the inhibition at 3 µM in experiment [1] was found to be 90%. Turning to `COCCOc1cc2ncc(C#N)c(Nc3ccc(F)c(Cl)c3)c2cc1NC(=O)C=C1CCN(C)CC1` [Example 180, N-(4-(3-chloro-4-fluorophenylamino)-3-cyano-7-(2-methoxyethoxy)quinolin-6-yl)-2-(1-methylpiperidin-4-ylidene)acetamide], in experiment [1], the inhibition at 3 µM was 92%. For the compound `CCN1CCC(=CC(=O)Nc2cc3c(Nc4ccc(F)c(Cl)c4)c(C#N)cnc3cc2OCCOC)CC1` [Example 181, N-(4-(3-chloro-4-fluorophenylamino)-3-cyano-7-(2-methoxyethoxy)quinolin-6-yl)-2-(1-ethylpiperidin-4-ylidene)acetamide], in experiment [1], the inhibition at 3 µM came to 94%. Still for that read-out and setting: to `CCCN1CCC(=CC(=O)Nc2cc3c(Nc4ccc(F)c(Cl)c4)c(C#N)cnc3cc2OCCOC)CC1` [Example 182, N-(4-(3-chloro-4-fluorophenylamino)-3-cyano-7-(2-methoxyethoxy)quinolin-6-yl)-2-(1-propylpiperidin-4-ylidene)acetamide] belongs 90%; to `COCCOc1cc2ncc(C#N)c(Nc3ccc(F)c(Cl)c3)c2cc1NC(=O)C=C1CCN(CCOC)CC1` [Example 183, N-(4-(3-chloro-4-fluorophenylamino)-3-cyano-7-(2-methoxyethoxy)quinolin-6-yl)-2-(1-(2-methoxyethyl)piperidin-4-ylidene)acetamide], 90%; to `C#Cc1cccc(Nc2c(C#N)cnc3cc(OCCOC)c(NC(=O)C=C4CCN(C)CC4)cc23)c1` [Example 190, N-(3-cyano-4-(3-ethynylphenylamino)-7-(2-methoxyethoxy)quinolin-6-yl)-2-(1-methylpiperidin-4-ylidene)acetamide], 91%. Consider `C#Cc1cccc(Nc2c(C#N)cnc3cc(OCCOC)c(NC(=O)C=C4CCN(CC)CC4)cc23)c1` [Example 191, N-(3-cyano-4-(3-ethynylphenylamino)-7-(2-methoxyethoxy)quinolin-6-yl)-2-(1-ethylpiperidin-4-ylidene)acetamide], for which the inhibition at 3 µM in experiment [1] was 93%.

Consider `C#Cc1cccc(Nc2c(C#N)cnc3cc(OCCOC)c(NC(=O)C=C4CCN(CCC)CC4)cc23)c1` [Example 192, N-(3-cyano-4-(3-ethynylphenylamino)-7-(2-methoxyethoxy)quinolin-6-yl)-2-(1-propylpiperidin-4-ylidene)acetamide], for which, in experiment [1], the inhibition at 3 µM was determined as 93%. On the same count and under the same terms, to `C#Cc1cccc(Nc2c(C#N)cnc3cc(OCCOC)c(NC(=O)C=C4CCN(CCOC)CC4)cc23)c1` [Example 193, N-(3-cyano-4-(3-ethynylphenylamino)-7-(2-methoxyethoxy)quinolin-6-yl)-2-(1-(2-methoxyethyl)piperidin-4-ylidene)acetamide] belongs 90%; to `COCCOc1cc2ncc(C#N)c(Nc3cccc(Br)c3)c2cc1NC(=O)C=C1CCN(C)CC1` [Example 194, N-(4-(3-bromophenylamino)-3-cyano-7-(2-methoxyethoxy)quinolin-6-yl)-2-(1-methylpiperidin-4-ylidene)acetamide], 89%. In the case of `COc1cc2ncc(C#N)c(Nc3ccc(OCc4ccccn4)c(Cl)c3)c2cc1NC(=O)C=C1CCN(C)CC1` [Example 197, N-(4-(3-chloro-4-(pyridin-2-ylmethoxy)phenylamino)-3-cyano-7-methoxyquinolin-6-yl)-2-(1-methylpiperidin-4-ylidene)acetamide], the inhibition at 3 µM in experiment [2] is 82%. On the same count and under the same terms, to `COCCN1CCC(=CC(=O)Nc2cc3c(Nc4ccc(OCc5ccccn5)c(Cl)c4)c(C#N)cnc3cc2OC)CC1` [Example 198, N-(4-(3-chloro-4-(pyridin-2-ylmethoxy)phenylamino)-3-cyano-7-methoxyquinolin-6-yl)-2-(1-(2-methoxyethyl)piperidin-4-ylidene)acetamide] belongs 86%; to `CCOc1cc2ncc(C#N)c(Nc3ccc(OCc4ccccn4)c(Cl)c3)c2cc1NC(=O)C=C1CCN(CC)CC1` [Example 199, N-(4-(3-chloro-4-(pyridin-2-ylmethoxy)phenylamino)-3-cyano-7-ethoxyquinolin-6-yl)-2-(1-ethylpiperidin-4-ylidene)acetamide], 87%. On to `COCCOc1cc2ncc(C#N)c(Nc3ccc(OCc4ccccn4)c(Cl)c3)c2cc1NC(=O)C=C1CCN(C)CC1` [Example 200, N-(4-(3-chloro-4-(pyridin-2-ylmethoxy)phenylamino)-3-cyano-7-(2-methoxyethoxy)quinolin-6-yl)-2-(1-methylpiperidin-4-ylidene)acetamide], for which, in experiment [2], the inhibition at 3 µM stood at 90%. Take `CCN1CCC(=CC(=O)Nc2cc3c(Nc4ccc(OCc5ccccn5)c(Cl)c4)c(C#N)cnc3cc2OCCOC)CC1` [Example 201, N-(4-(3-chloro-4-(pyridin-2-ylmethoxy)phenylamino)-3-cyano-7-(2-methoxyethoxy)quinolin-6-yl)-2-(1-ethylpiperidin-4-ylidene)acetamide]: the inhibition at 3 µM in experiment [2] came out at 89%. The same measure, in the same setting: under `CCCN1CCC(=CC(=O)Nc2cc3c(Nc4ccc(OCc5ccccn5)c(Cl)c4)c(C#N)cnc3cc2OCCOC)CC1` [Example 202, N-(4-(3-chloro-4-(pyridin-2-ylmethoxy)phenylamino)-3-cyano-7-(2-methoxyethoxy)quinolin-6-yl)-2-(1-propylpiperidin-4-ylidene)acetamide] stands 92%; under `CCOc1cc2ncc(C#N)c(Nc3ccc(OCc4cccc(F)c4)c(Cl)c3)c2cc1NC(=O)C=C1CCN(CC)CC1` [Example 206, N-(4-(4-(3-fluorobenzyloxy)-3-chlorophenylamino)-3-cyano-7-ethoxyquinolin-6-yl)-2-(1-ethylpiperidin-4-ylidene)acetamide], 80%.

`COCCOc1cc2ncc(C#N)c(Nc3ccc(OCc4cccc(F)c4)c(Cl)c3)c2cc1NC(=O)C=C1CCN(C)CC1` [Example 208, N-(4-(4-(3-fluorobenzyloxy)-3-chlorophenylamino)-3-cyano-7-(2-methoxyethoxy)quinolin-6-yl)-2-(1-methylpiperidin-4-ylidene)acetamide]: the inhibition at 3 µM in experiment [2] was 83%. On the same count and under the same terms, to `CCN1CCC(=CC(=O)Nc2cc3c(Nc4ccc(OCc5cccc(F)c5)c(Cl)c4)c(C#N)cnc3cc2OCCOC)CC1` [Example 209, N-(4-(4-(3-fluorobenzyloxy)-3-chlorophenylamino)-3-cyano-7-(2-methoxyethoxy)quinolin-6-yl)-2-(1-ethylpiperidin-4-ylidene)acetamide] belongs 78%. As to `COCCOc1cc2ncc(C#N)c(Nc3ccc(OCc4cccc(F)c4)c(Cl)c3)c2cc1NC(=O)C=C1CCN(CCOC)CC1` [Example 211, N-(4-(4-(3-fluorobenzyloxy)-3-chlorophenylamino)-3-cyano-7-(2-methoxyethoxy)quinolin-6-yl)-2-(1-(2-methoxyethyl)piperidin-4-ylidene)acetamide], in experiment [2], the inhibition at 3 µM amounted to 81%.
